Experimental data reported in the supplement of paper PMC10307832.

Legend:
Assay in all cases: relative viability (nuclei count vs DMSO), 5 days (fraction); higher = more cells survive
PC-14 = system: PC-14
Procedure, shortened: (§1)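 For relative viability, nuclei counts in treated wells were divided by those in vehicle wells. Lung cancer cell lines had been pin-tool dosed in 1536-well plates the day after seeding and cultured for 5 days, then fixed and stained in one step (final 0.05% Triton X-100, 1% formaldehyde, 1 ug/ml Hoechst) and imaged at 4×. Doses were one drug alone or a fixed anchor-drug dose plus five library-drug doses (not always all listed) in √10 steps, and values are duplicate-plate medians.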

NCI-H838 = system: NCI-H838
Procedure, shortened: as §1

HCC-44 = system: HCC-44
Procedure, shortened: as §1

NCI-H650 = system: NCI-H650
Procedure, shortened: as §1

LC-2-ad = system: LC-2-ad
Procedure, shortened: as §1

NCI-H1355 = system: NCI-H1355
Procedure, shortened: as §1

NCI-H1915 = system: NCI-H1915
Procedure, shortened: as §1

HCC-15 = system: HCC-15
Procedure, shortened: as §1

NCI-H2347 = system: NCI-H2347
Procedure, shortened: as §1

ABC-1 = system: ABC-1
Procedure, shortened: as §1

LU99A = system: LU99A
Procedure, shortened: as §1

NCI-H2023 = system: NCI-H2023
Procedure, shortened: as §1

HOP-62 = system: HOP-62
Procedure, shortened: as §1

NCI-H2085 = system: NCI-H2085
Procedure, shortened: as §1

SW 1573 = system: SW 1573
Procedure, shortened: as §1

NCI-H1651 = system: NCI-H1651
Procedure, shortened: as §1

COR-L23 = system: COR-L23
Procedure, shortened: as §1

NCI-H1993 = system: NCI-H1993
Procedure, shortened: as §1

UMC-11 = system: UMC-11
Procedure, shortened: as §1

NCI-H2126 = system: NCI-H2126
Procedure, shortened: as §1

HARA = system: HARA
Procedure, shortened: as §1

EPLC-272H = system: EPLC-272H
Procedure, shortened: as §1

Nc1ccn([C@@H]2O[C@H](CO)[C@@H](O)[C@@H]2O)c(=O)n1 [Cytarabine] + Nc1ncn([C@H]2C[C@H](O)[C@@H](CO)O2)c(=O)n1 [Decitabine] (partner 2 µM) showed a relative viability (PC-14; first compound 0.005 µM) of 0.161, a relative viability (PC-14; first compound 0.01581 µM) of 0.0896 and a relative viability (PC-14; first compound 0.05 µM) of 0.114. The relative viability (PC-14; first compound 0.1581 µM) was 0.0408, the relative viability (PC-14; first compound 0.5 µM) was 0.0434 and the relative viability (NCI-H838; first compound 0.005 µM) was 0.476. The relative viability (NCI-H838; first compound 0.01581 µM) was 0.407, the relative viability (NCI-H838; first compound 0.05 µM) was 0.427 and the relative viability (NCI-H838; first compound 0.1581 µM) was 0.311. It also gave a relative viability (NCI-H838; first compound 0.5 µM) of 0.274, a relative viability (HCC-44; first compound 0.005 µM) of 1.04 and a relative viability (HCC-44; first compound 0.01581 µM) of 0.941. It also gave a relative viability (HCC-44; first compound 0.05 µM) of 0.87, a relative viability (HCC-44; first compound 0.1581 µM) of 0.748 and a relative viability (HCC-44; first compound 0.5 µM) of 0.737. It also gave a relative viability (NCI-H650; first compound 0.005 µM) of 0.326, a relative viability (NCI-H650; first compound 0.01581 µM) of 0.255 and a relative viability (NCI-H650; first compound 0.05 µM) of 0.247. It also gave a relative viability (NCI-H650; first compound 0.1581 µM) of 0.152, a relative viability (NCI-H650; first compound 0.5 µM) of 0.152 and a relative viability (LC-2-ad; first compound 0.005 µM) of 0.727. The relative viability (LC-2-ad; first compound 0.01581 µM) was 0.682, the relative viability (LC-2-ad; first compound 0.05 µM) was 0.759 and the relative viability (LC-2-ad; first compound 0.1581 µM) was 0.69. For the same compound, the relative viability (LC-2-ad; first compound 0.5 µM) was 0.499, the relative viability (NCI-H1355; first compound 0.005 µM) was 0.349 and the relative viability (NCI-H1355; first compound 0.01581 µM) was 0.332. It also gave a relative viability (NCI-H1355; first compound 0.05 µM) of 0.337, a relative viability (NCI-H1355; first compound 0.1581 µM) of 0.242 and a relative viability (NCI-H1355; first compound 0.5 µM) of 0.255. The relative viability (NCI-H1915; first compound 0.005 µM) was 0.248, the relative viability (NCI-H1915; first compound 0.01581 µM) was 0.289 and the relative viability (NCI-H1915; first compound 0.05 µM) was 0.269. The relative viability (NCI-H1915; first compound 0.1581 µM) was 0.231, the relative viability (NCI-H1915; first compound 0.5 µM) was 0.227 and the relative viability (HCC-15; first compound 0.005 µM) was 0.511. For the same compound, the relative viability (HCC-15; first compound 0.01581 µM) was 0.528, the relative viability (HCC-15; first compound 0.05 µM) was 0.594 and the relative viability (HCC-15; first compound 0.1581 µM) was 0.462. The relative viability (HCC-15; first compound 0.5 µM) was 0.464, the relative viability (NCI-H2347; first compound 0.005 µM) was 0.61 and the relative viability (NCI-H2347; first compound 0.01581 µM) was 0.56. It also gave a relative viability (NCI-H2347; first compound 0.05 µM) of 0.507, a relative viability (NCI-H2347; first compound 0.1581 µM) of 0.537 and a relative viability (NCI-H2347; first compound 0.5 µM) of 0.573. For the same compound, the relative viability (ABC-1; first compound 0.005 µM) was 1.13, the relative viability (ABC-1; first compound 0.01581 µM) was 1.02 and the relative viability (ABC-1; first compound 0.05 µM) was 0.925. It also gave a relative viability (ABC-1; first compound 0.1581 µM) of 0.786, a relative viability (ABC-1; first compound 0.5 µM) of 0.611 and a relative viability (LU99A; first compound 0.005 µM) of 0.863. It also gave a relative viability (LU99A; first compound 0.01581 µM) of 0.781, a relative viability (LU99A; first compound 0.05 µM) of 0.93 and a relative viability (LU99A; first compound 0.1581 µM) of 0.925. It also gave a relative viability (LU99A; first compound 0.5 µM) of 0.823, a relative viability (NCI-H2023; first compound 0.005 µM) of 0.169 and a relative viability (NCI-H2023; first compound 0.01581 µM) of 0.116. It also gave a relative viability (NCI-H2023; first compound 0.05 µM) of 0.114, a relative viability (NCI-H2023; first compound 0.1581 µM) of 0.0751 and a relative viability (NCI-H2023; first compound 0.5 µM) of 0.0656. For the same compound, the relative viability (HOP-62; first compound 0.005 µM) was 0.222, the relative viability (HOP-62; first compound 0.01581 µM) was 0.189 and the relative viability (HOP-62; first compound 0.05 µM) was 0.179. The relative viability (HOP-62; first compound 0.1581 µM) was 0.162, the relative viability (HOP-62; first compound 0.5 µM) was 0.126 and the relative viability (NCI-H2085; first compound 0.005 µM) was 0.491. For the same compound, the relative viability (NCI-H2085; first compound 0.01581 µM) was 0.512, the relative viability (NCI-H2085; first compound 0.05 µM) was 0.518 and the relative viability (NCI-H2085; first compound 0.1581 µM) was 0.483. For the same compound, the relative viability (NCI-H2085; first compound 0.5 µM) was 0.559, the relative viability (SW 1573; first compound 0.005 µM) was 0.347 and the relative viability (SW 1573; first compound 0.01581 µM) was 0.184. It also gave a relative viability (SW 1573; first compound 0.05 µM) of 0.247, a relative viability (SW 1573; first compound 0.1581 µM) of 0.121 and a relative viability (SW 1573; first compound 0.5 µM) of 0.083. For the same compound, the relative viability (NCI-H1651; first compound 0.005 µM) was 0.646, the relative viability (NCI-H1651; first compound 0.01581 µM) was 0.493 and the relative viability (NCI-H1651; first compound 0.05 µM) was 0.167. For the same compound, the relative viability (NCI-H1651; first compound 0.1581 µM) was 0.281, the relative viability (NCI-H1651; first compound 0.5 µM) was 0.213 and the relative viability (COR-L23; first compound 0.005 µM) was 0.43. For the same compound, the relative viability (COR-L23; first compound 0.01581 µM) was 0.377, the relative viability (COR-L23; first compound 0.05 µM) was 0.341 and the relative viability (COR-L23; first compound 0.1581 µM) was 0.205. For the same compound, the relative viability (COR-L23; first compound 0.5 µM) was 0.156, the relative viability (NCI-H1993; first compound 0.005 µM) was 0.584 and the relative viability (NCI-H1993; first compound 0.01581 µM) was 0.441. It also gave a relative viability (NCI-H1993; first compound 0.05 µM) of 0.516, a relative viability (NCI-H1993; first compound 0.1581 µM) of 0.471 and a relative viability (NCI-H1993; first compound 0.5 µM) of 0.206. It also gave a relative viability (UMC-11; first compound 0.005 µM) of 0.547, a relative viability (UMC-11; first compound 0.01581 µM) of 0.521 and a relative viability (UMC-11; first compound 0.05 µM) of 0.328. It also gave a relative viability (UMC-11; first compound 0.1581 µM) of 0.32, a relative viability (UMC-11; first compound 0.5 µM) of 0.306 and a relative viability (NCI-H2126; first compound 0.005 µM) of 0.597. For the same compound, the relative viability (NCI-H2126; first compound 0.01581 µM) was 0.518, the relative viability (NCI-H2126; first compound 0.05 µM) was 0.514 and the relative viability (NCI-H2126; first compound 0.1581 µM) was 0.457. For the same compound, the relative viability (NCI-H2126; first compound 0.5 µM) was 0.429, the relative viability (HARA; first compound 0.005 µM) was 0.448 and the relative viability (HARA; first compound 0.01581 µM) was 0.236. The relative viability (HARA; first compound 0.05 µM) was 0.347, the relative viability (HARA; first compound 0.1581 µM) was 0.173 and the relative viability (HARA; first compound 0.5 µM) was 0.18. For the same compound, the relative viability (EPLC-272H; first compound 0.005 µM) was 0.403, the relative viability (EPLC-272H; first compound 0.01581 µM) was 0.358 and the relative viability (EPLC-272H; first compound 0.05 µM) was 0.346. For the same compound, the relative viability (EPLC-272H; first compound 0.1581 µM) was 0.224 and the relative viability (EPLC-272H; first compound 0.5 µM) was 0.247.
